# Experimental data from ChEMBL document CHEMBL1152338, “Discorhabdins revisited: cytotoxic alkaloids from southern australian marine sponges of the genera Higginsia and Spongosorites” (J Nat Prod, 2009).
# Legend:
# Format in all cases: functional, cell-based
# [1] = system: A549; test: Cytotoxicity against human A549 cells
# [2] = system: MDA-MB-231; test: Cytotoxicity against human MDA-MB-231 cells
# [3] = system: HT-29; test: Cytotoxicity against human HT-29 cells
SMILES,IC50 [1],IC50 [2],IC50 [3]
CN1CCc2cn(C)c3c2C1=CC(=O)C3=O [DAMIRONE A],5 mg/L,5 mg/L,5 mg/L
C[N+]1=C2C=C(NCCc3ccc(O)cc3)C(=O)c3[nH]cc(c32)CC1 [MAKALUVAMINE J],5 mg/L,5 mg/L,5 mg/L
O=C1C2=C3C4=[N+](CCc5c[nH]c1c54)[C@@H]1[C@H](O)C=C4S[C@@H](C[C@@]43[C@H]1O)N2,0.1 mg/L,0.1 mg/L,0.1 mg/L
O=C1C[C@H]2S[C@H]3C[C@]2(C=C1Br)C1=C(N3)C(=O)c2[nH]cc3c2C1=NCC3 [DISCORHABDINE A],0.05 mg/L,0.05 mg/L,0.05 mg/L
O=C1C2=C(C3=NCCc4c[nH]c1c43)[C@]13C=C(Br)[C@@H](O)C[C@H]1S[C@@H](C3)N2,0.1 mg/L,0.1 mg/L,0.1 mg/L
